Structures can show the parent of a compound that is named as a salt.
Key:
[1] = biological target: human κ opioid receptor (Homo sapiens, UniProt P41145); assay: κ opioid receptor agonist activity test in GTP binding activity measurement system ([35S]GTPγS binding); format: biochemical; details: test compound concentration 10^−9 M, binding of 10^−6 M (−)-U50488 = 100%, human κ opioid receptor membrane preparation, average of duplicate
Experimental: 1. κ Opioid Receptor Agonist Activity Tests in GTP Binding Activity Measurement System
Jinmin Zhu et al. reported a method of evaluating agonist activities of drugs on a κ opioid receptor wherein guanosine 5′-triphosphate (GTP) radiolabelled with a human κ opioid receptor is used in J. Pharmaco. Exp. Ter., 282, 676–684 (1997). κ opioid receptor agonist activities (actions) of test compounds were evaluated according to the method described in the above-mentioned literature.
N-2-Hydroxyethylpiperazine-N′-2-ethanesulfonic acid (HEPES, 4.77 g), magnesium chloride hexahydrate (2.03 g), sodium chloride (5.84 g), disodium […] (EDTA•2Na, 0.37 g), DL-dithiothreitol (DTT, 0.15 g) and bovine serum albumin (BSA, 1.0 g) were dissolved in ultrapure water, pH was adjusted to 7.4 with sodium hydroxide, and further ultrapure water was added to the mixture so that a total amount was one liter to prepare a incubation buffer.
Nine volume of the incubation buffer was added to one volume of dimethyl sulfoxide (DMSO) to prepare a 10% DMSO-incubation buffer.
Tris(hydroxymethyl)aminomethane hydrochloride (TRIZA-HCl, 66.1 g) and Tris(hydroxymethyl)aminomethane (TRIZA-Base, 9.7 g) were dissolved in ultrapure water so that a total amount was 10 liters to prepare a 50 mM Tris-hydrochloric acid buffer (pH 7.4).
A human κ opioid receptor membrane preparation (100 unit/ml) was diluted 60 times with the incubation buffer under ice-cold to prepare a human κ opioid receptor membrane preparation solution. The membrane preparation solution was preserved under ice-cold.
A test compound was dissolved in 100% DMSO to prepare a 10^−3 M test compound solution, and then the incubation buffer was added to the 10^−3 M test compound solution to prepare a 10^−4 M test compound solution. Next, the 10% dimethyl sulfoxide-incubation buffer was added to the 10^−4 M test compound solution to prepare a 10^−5 M, 10^−6 M, 10^−7 M, 10^−8 M or 10^−9 M test compound solution.
A drug (−)-U50488 (J. Pharmacol. Exp. Ther., 224, 7–12 (1983)), which is known as a κ opioid receptor agonist, was used as a positive control drug in the tests.
(−)-U-50488 was dissolved in 100% DMSO to prepare a 10^−3 M positive control drug solution, and then the incubation buffer was added to the 10^−3 M positive control drug solution to prepare a 10^−4 M positive control drug solution. Next, the 10% DMSO-incubation buffer was added to the 10^−4 M positive control drug solution to prepare a 10^−6 M positive control drug solution.
GDP was dissolved in ultrapure water to prepare a 10^−3 M GDP solution, and the incubation buffer was added to the 10^−3 M GDP solution to prepare a 10^−5 M GDP solution.
10^−3 M [^35S]GTPγS was diluted with the incubation buffer to prepare 10^−9 M radiolabelled reagent.
• 1. The incubation buffer (50 μl), the 10^−5 M GDP solution (50 μl), the human κ opioid receptor membrane preparation solution (300 μl), the test compound solution and the 10^−9 M radiolabelled reagent (50 μl) were put into a glass tube, and then the mixture was incubated at 30° C. for 60 minutes. • 2. The 50 mM Tris-hydrochloric acid buffer (pH 7.4) was added to the mixture to stop the reaction, the reaction mixture was suction-filtered with a GF/B filter, and then the residue on the GF/B filter was washed with the 50 mM Tris-hydrochloric acid buffer (3 ml) three times. • 3. The GF/B filter was air-dried, and then the residue on the GF/B filter was taken out with an antomatic dispenser and transfered into a vial. • 4. Scintisol EX-H (5 ml) was introduced into the vial to prepare a sample solution, and then radioactivity in the sample solution was measured with a liquid scintillation counter for one minute. The radioactivity was expressed in “cpm” (counts per minute). Calculation Formula of κ Opioid Receptor Agonist Activity
Each agonist activity of the test compound on the κ opioid receptor was expressed in [^35S]GTPγS binding % when [^35S]GTPγS binding of 10^−6 M (−)-U50488 was 100%. […]

[2] = tested on: mouse acetic acid writhing; assay: Antinociceptive action test by mouse acetic acid writhing method; format: in vivo; details: 30 mg/kg oral, 20 min before 0.7% acetic acid i.p., writhing counted 10 to 20 minutes after acetic acid, vs vehicle group, average of seven samples
Experimental: 2. Antinociceptive Action Tests by Mouse Acetic Acid Writhing Method
Accordingly, antinociceptive action tests of test compounds were carried out using the mouse acetic acid writhing method, and analgesic effects of the test compounds were evaluated.
Twenty minutes after oral administration of the test compound (30 mg/kg), the 0.7% acetic acid solution was administered intraperitoneally in a rate of 0.1 ml per 10 g of mouse weight.
Inhibition rates were calculated according to the following equation.
The antinociceptive action of the test compound was expressed in an inhibition rate to writhing numbers of a vehicle group.

human κ opioid receptor, sequence (P41145 whole entry): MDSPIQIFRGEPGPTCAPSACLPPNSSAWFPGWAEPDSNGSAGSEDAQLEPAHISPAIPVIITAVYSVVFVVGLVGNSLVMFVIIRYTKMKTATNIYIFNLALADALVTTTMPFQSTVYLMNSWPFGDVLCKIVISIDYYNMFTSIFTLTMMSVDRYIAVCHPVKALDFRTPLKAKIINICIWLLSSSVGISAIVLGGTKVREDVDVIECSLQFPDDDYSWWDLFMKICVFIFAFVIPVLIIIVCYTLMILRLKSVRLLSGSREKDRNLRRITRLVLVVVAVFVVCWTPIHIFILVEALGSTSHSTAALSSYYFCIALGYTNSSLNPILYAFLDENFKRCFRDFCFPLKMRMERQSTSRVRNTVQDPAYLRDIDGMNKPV

Row | Compound | [^35S]GTP γ S binding % ([1]; Hydrochloride) | Inhibition rate (%) ([2]; Hydrochloride, 30 mg/kg) | [^35S]GTP γ S binding % [1] | Inhibition rate (%) [2] | further results
1 | CCOCCN(CCCOc1ccc(OC)cc1C1Sc2cc(Cl)ccc2N1C(C)=O)C(C)C (single isomer, unassigned; (+)) [Compound No. 9-3, (+)-3-Acetyl-6-chloro-2-[2-(3-(N-(2-ethoxyethyl)-N-isopropylamino)-propoxy)-5-methoxyphenyl]benzothiazoline Hydrochloride] | 117.5% | 100.0% |  |  | 
2 | COc1ccc(OCCCN(C)C(C)C)c(C2Sc3cc(Cl)ccc3N2C(C)=O)c1 (single isomer, unassigned; (+)) [Compound No. 9-12, (+)-3-Acetyl-6-chloro-2-[2-(3-(N-isopropyl-N-methylamino)propoxy)-5-methoxyphenyl]benzothiazoline Hydrochloride] |  |  | 107.9% | 57.8% | 
3 | CCOCCN(CCCOc1ccc(OC)cc1C1Sc2ccccc2N1C(C)=O)C(C)C (single isomer, unassigned; (+)) [Compound No. 11-1, (+)-3-Acetyl-2-[2-(3-(N-(2-ethoxyethyl)-N-isopropylamino)propoxy)-5-methoxyphenyl]benzothiazoline Hydrochloride] |  |  |  |  | activation at 0.001 µM ([1]; read-out: [^35S]GTP γ S binding %): 66.8%; inhibition in vivo at 30 mg/kg ([2]; read-out: Inhibition rate (%)): 98.3%
4 | COc1ccc(OCCCN(CCO)C(C)C)c(C2Sc3cc(Cl)ccc3N2C(C)=O)c1 (centres unmarked) [Compound No. 3-2, 3-Acetyl-6-chloro-2-[2-(3-(N-(2-hydroxyethyl)-N-isopropylamino)-propoxy)-5-methoxyphenyl]benzothiazoline Hydrochloride] | 66.5% | 76.1% |  |  | 
5 | COCCN(CCCOc1ccc(OC)cc1C1Sc2cc(Cl)ccc2N1C(C)=O)C(C)C (centres unmarked) [Compound No. 3-25, 3-Acetyl-6-chloro-2-[2-(3-(N-isopropyl-N-(2-methoxyethyl)amino)-propoxy)-5-methoxyphenyl]benzothiazoline Hydrochloride] |  |  | 67.9% | 91.0% | 
6 | CCOCCN(CCCOc1ccc(OC)cc1C1Sc2cc(Cl)ccc2N1C(C)=O)C(C)C (centres unmarked) [Compound No. 3-33, 3-Acetyl-6-chloro-2-[2-(3-(N-(2-ethoxyethyl)-N-isopropylamino)-propoxy)-5-methoxyphenyl]benzothiazoline Hydrochloride] | 75.8% | 99.5% |  |  | 
7 | COc1ccc(OCCCN(CCO)C(C)C)c(C2Sc3ccc(Cl)cc3N2C(C)=O)c1 (centres unmarked) [Compound No. 5-3, 3-Acetyl-5-chloro-2-[2-(3-(N-(2-hydroxyethyl)-N-isopropylamino)-propoxy)-5-methoxyphenyl]benzothiazoline Hydrochloride] |  |  | 51.2% | 51.6% | 
8 | COc1ccc(OC(C)CCN(CCO)C(C)C)c(C2Sc3cc(Cl)ccc3N2C(C)=O)c1 (centres unmarked) [Compound No. 7-2, 3-Acetyl-6-chloro-2-[2-(3-(N-(2-hydroxyethyl)-N-isopropylamino)-1-methylpropoxy)-5-methoxyphenyl]benzothiazoline Hydrochloride] |  |  | 62.9% | 70.0% | 
9 | COCOCCN(CCCOc1ccc(OC)cc1C1Sc2cc(Cl)ccc2N1C(C)=O)C(C)C (centres unmarked) [Compound No. 20-1, 3-Acetyl-6-chloro-2-[2-(3-(N-isopropyl-(N-(2-methoxymethyloxy-ethyl))amino)propoxy)-5-methoxyphenyl]benzothiazoline] |  |  | 65.1% | 94.8% | 
10 | COCCOCOCCN(CCCOc1ccc(OC)cc1C1Sc2cc(Cl)ccc2N1C(C)=O)C(C)C (centres unmarked) [Compound No. 20-2, 3-Acetyl-6-chloro-2-[2-(3-(N-isopropyl-N-(2-(2-methoxyethoxymethoxy)-ethyl)amino)propoxy)-5-methoxyphenyl]benzothiazoline] |  |  | 50.5% | 81.7% | 

Reference: US7112598B2, “κ opioid receptor agonist comprising 2-phenylbenzothiazoline derivative” (Santen Pharmaceutical Co., Ltd., priority 2002, dated 2006)
